Source: PubChem BioAssay AID743090 (Broad Institute, 2013)
Activity calls are given as the source filed them.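 How the source made its calls: active means IC50 below 10 µM in A549 cells, with the call taken as the median across tests; inactive means IC50 above 10 µM in A549 cells.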

Test system: A549 viability, CellTiter-Glo luminescence, 48 h
Assay: cytotoxicity in TP53 wild-type A549 cells – cell-based, CellTiter-Glo luminescence, dry powder, selectivity assay for TP53-mutant selective toxicity project, dose response (AID 743090)

SMILES	IC50
C[C@@H]1CC(=O)NN=C1c1ccc(N2CCCCC2)cc1	> 10 µM (inactive)
CC1(C)C(=O)NN=C1c1ccc(Cl)cc1	> 10 µM (inactive)
CC(=O)N1CCN(c2ccc(C3=NNC(=O)CC3C)cc2F)CC1 (stereo not drawn)	> 10 µM (inactive)
C[C@@H]1CC(=O)NN=C1c1ccc(N)c(Br)c1	> 10 µM (inactive)
CCN(CC)c1ccc(-c2n[nH]c(=O)cc2C)cc1	> 10 µM (inactive)
C[C@@H]1CC(=O)NN=C1c1ccc(F)c(F)c1	> 10 µM (inactive)
C[C@@H]1CC(=O)NN=C1c1ccc(F)cc1 (racemic)	> 10 µM (inactive)
CC(=O)Nc1ccc(C2=NNC(=O)C[C@H]2C)cc1Br	> 10 µM (inactive)
C[C@@H]1CC(=O)NN=C1c1ccc(N2CCOCC2)cc1	> 10 µM (inactive)
C[C@@H]1CC(=O)NN=C1c1ccc(N2CCCCC2=O)cc1	> 10 µM (inactive)
C/C=C/c1ccc(C2=NNC(=O)C[C@H]2C)cc1	> 10 µM (inactive)
CCN(CC)c1ccc(C2=NNC(=O)CC2C)cc1 (stereo not drawn)	> 10 µM (inactive)
CCN(CC)c1ccc(-c2nc(C(C)C)no2)cc1[N+](=O)[O-]	> 10 µM (inactive)
CC(=O)Nc1ccc(C2=NNC(=O)C[C@H]2C)cc1C(C)=O	> 10 µM (inactive)
CCCc1ccc(C2=NNC(=O)C[C@H]2C)cc1	> 10 µM (inactive)
Cc1cc(=O)[nH]nc1-c1ccc(N)cc1	> 10 µM (inactive)
CC(=O)Nc1ccc(C2=NNC(=O)CC2C)cc1 (stereo not drawn)	> 10 µM (inactive)
CC1(C)C(=O)NN=C1c1ccc([N+](=O)[O-])cc1	> 10 µM (inactive)
CC1CC(=O)NN=C1c1ccc(N2CCN(C(=O)Cc3ccc(Cl)cc3Cl)CC2)cc1 (stereo not drawn)	> 10 µM (inactive)
CC1(C)C(=O)NN=C1c1ccc(N2CCOCC2)cc1	> 10 µM (inactive)
C[C@@H]1CC(=O)NN=C1c1ccc(C2CCCCC2)cc1	> 10 µM (inactive)

SMILES	IC50
Cc1ccc(CCC(=O)N2CCN(c3ccc(C4=NNC(=O)CC4C)cc3)CC2)cc1 (stereo not drawn)	> 10 µM (inactive)
C[C@@H]1CC(=O)NN=C1c1ccc(Cl)cc1	> 10 µM (inactive)
C[C@@H]1CC(=O)NN=C1c1ccc(-c2cncnc2)cc1	> 10 µM (inactive)
CC(=O)Nc1ccc(C2=NNC(=O)C[C@H]2C)cc1[N+](=O)[O-]	> 10 µM (inactive)
CC(=O)Nc1ccc(C2=NNC(=O)C[C@H]2C)cc1	> 10 µM (inactive)
C[C@@H]1CC(=O)NN=C1c1ccc(-n2cnnc2)cc1	> 10 µM (inactive)
CCN(CC)c1ccc(C2=NNC(=O)CC2C)cc1NC(C)=O (stereo not drawn)	> 10 µM (inactive)
CC1C(=O)NN=C1c1ccc([N+](=O)[O-])cc1 (stereo not drawn)	> 10 µM (inactive)
CCN(CC)c1ccc(C2=NNC(=O)C[C@H]2C)cc1[N+](=O)[O-]	> 10 µM (inactive)
CCN(CC)c1ccc(C2=NNC(=O)CC2C)cc1[N+](=O)[O-] (stereo not drawn)	> 10 µM (inactive)
CCN(CC)c1ccc(C2=NNC(=O)C2(C)C)cc1	> 10 µM (inactive)
CCN(CC)c1ccc(C(=O)Nc2ccccc2)cc1[N+](=O)[O-]	> 10 µM (inactive)
CCN(CC)c1ccc(C2=NNC(=O)CC2C)cc1N (stereo not drawn)	> 10 µM (inactive)
C[C@@H]1CC(=O)NN=C1c1ccc(N2CCCOC2=O)cc1	> 10 µM (inactive)
C[C@@H]1CC(=O)NN=C1c1ccc(C2=CCCCC2)cc1	> 10 µM (inactive)
CCN(CC)c1ccc(C2=NNC(=O)C[C@H]2C)cc1	> 10 µM (inactive)
CC(=O)Nc1ccc(-c2n[nH]c(=O)cc2C)cc1	> 10 µM (inactive)
C[C@@H]1CC(=O)NN=C1c1ccc(N2CCOCC2)c(F)c1	> 10 µM (inactive)
C[C@@H]1CC(=O)NN=C1c1ccc(N2CCCC2=O)cc1	> 10 µM (inactive)
CC(=O)Nc1ccc(C2=NNC(=O)C[C@H]2C)cc1N	> 10 µM (inactive)
C[C@@H]1CC(=O)NN=C1c1ccc(I)cc1	> 10 µM (inactive)

SMILES	IC50
C[C@@H]1CC(=O)NN=C1c1ccc(N)c([N+](=O)[O-])c1	> 10 µM (inactive)
CC1CC(=O)NN=C1c1ccc(N2CCOCC2)c(F)c1 (stereo not drawn)	> 10 µM (inactive)
O=C1C[C@H]2CCc3cc(N4CCOCC4)ccc3C2=NN1 (racemic)	> 10 µM (inactive)
Cc1nc2ccc(C3=NNC(=O)C[C@H]3C)cc2[nH]1	> 10 µM (inactive)
CCNc1ccc(C2=NNC(=O)C[C@H]2C)cc1	> 10 µM (inactive)
CCN1N=C(c2ccc(N(CC)CC)cc2)[C@H](C)CC1=O	> 10 µM (inactive)
C[C@@H]1CC(=O)NN=C1c1ccc(N2CCCCS2(=O)=O)cc1	> 10 µM (inactive)
C#Cc1cc(C2=NNC(=O)C[C@H]2C)ccc1NC(C)=O	> 10 µM (inactive)
CCNc1ccc(C2=NNC(=O)C[C@H]2C)cc1[N+](=O)[O-]	> 10 µM (inactive)
C[C@@H]1CC(=O)NN=C1c1ccc(N2CCN(C)CC2)cc1	> 10 µM (inactive)
CC1CC(=O)NN=C1c1cccs1 (stereo not drawn)	> 10 µM (inactive)
CC1CC(=O)N(c2ccccc2)N=C1c1ccc(Cl)cc1 (stereo not drawn)	> 10 µM (inactive)
CC1(C)C(=O)NN=C1c1ccc(N)cc1	> 10 µM (inactive)
C[C@@H]1CC(=O)NN=C1c1ccc(N2CCOCC2)cc1 (racemic)	> 10 µM (inactive)
C[C@@H]1CC(=O)NN=C1c1ccccc1	> 10 µM (inactive)
O=C1CC(c2ccccc2)=NN1	> 10 µM (inactive)
CCN(CC)c1ccc(C2=NNC(=O)CC2C)cc1NCCOCCOCCNC(=O)OC(C)(C)C (stereo not drawn)	> 10 µM (inactive)
C[C@@H]1CC(=O)NN=C1c1ccc([Si](C)(C)C)cc1	> 10 µM (inactive)
CC1CC(=O)NN=C1c1ccc(F)c(F)c1 (stereo not drawn)	> 10 µM (inactive)
C[C@H]1CC(=O)NN=C1c1ccc(F)c(F)c1	> 10 µM (inactive)
C[C@H]1CC(=O)NN=C1c1ccc(N2CCOCC2)c(F)c1	> 10 µM (inactive)
